According to PubChem BioAssay AID1745844 (Carcinogenic Potency Database (CPDB), 2022):
“And” between values parts separate entries of the source, which are not always exact repeats. Equal values may be shown once.

Tested on: rodent lifetime carcinogenesis bioassay, tumor incidence TD50
Test: carcinogenic potency in animals, long-term in vivo studies, CPDB compilation (AID 1745844)
Conditions: rat, strain Sprague-Dawley

`C=CCl` was tested, and the TD50 (females, inhaled, site: extrahepatic tissue, lesion: angioma, dosed 52 weeks, study length 111 weeks) was 115 mg/kg/day, the TD50 (females, inhaled, site: extrahepatic tissue, lesion: angioma, dosed 52 weeks, study length 139 weeks) was 399 mg/kg/day and the TD50 (females, inhaled, site: extrahepatic tissue, lesion: angiosarcoma, dosed 25 weeks, study length 135 weeks) was 2420 mg/kg/day. It also gave a TD50 (females, inhaled, site: extrahepatic tissue, lesion: angiosarcoma, dosed 52 weeks, study length 111 weeks) of 52.9 mg/kg/day, a TD50 (females, inhaled, site: extrahepatic tissue, lesion: angiosarcoma, dosed 52 weeks, study length 131 weeks) of 21400 mg/kg/day and a TD50 (females, inhaled, site: kidney, lesion: nephroblastoma, dosed 25 weeks, study length 135 weeks) of 3140 mg/kg/day. The TD50 (females, inhaled, site: kidney, lesion: nephroblastoma, dosed 52 weeks, study length 111 weeks) was 17.5 mg/kg/day, the TD50 (females, inhaled, site: kidney, lesion: nephroblastoma, dosed 52 weeks, study length 139 weeks) was 230 mg/kg/day and the TD50 (females, inhaled, site: liver, lesion: angioma, dosed 25 weeks, study length 127 weeks) was 913 mg/kg/day. For the same molecule, the TD50 (females, inhaled, site: liver, lesion: angioma, dosed 25 weeks, study length 135 weeks) was 507 mg/kg/day, the TD50 (females, inhaled, site: liver, lesion: angioma, dosed 52 weeks, study length 111 weeks) was 30.7 mg/kg/day and the TD50 (females, inhaled, site: liver, lesion: angioma, dosed 52 weeks, study length 139 weeks) was 378 mg/kg/day. The TD50 (females, inhaled, site: liver, lesion: angioma, dosed 71 weeks, study length 71 weeks) was 9130 mg/kg/day, the TD50 (females, inhaled, site: liver, lesion: angiosarcoma, dosed 25 weeks, study length 127 weeks) was 4460 mg/kg/day and the TD50 (females, inhaled, site: liver, lesion: angiosarcoma, dosed 25 weeks, study length 135 weeks) was 2460 mg/kg/day. For the same molecule, the TD50 (females, inhaled, site: liver, lesion: angiosarcoma, dosed 52 weeks, study length 111 weeks) was 20.2 mg/kg/day, the TD50 (females, inhaled, site: liver, lesion: angiosarcoma, dosed 52 weeks, study length 131 weeks) was 735 mg/kg/day and 21 mg/kg/day and the TD50 (females, inhaled, site: liver, lesion: angiosarcoma, dosed 52 weeks, study length 139 weeks) was 113 mg/kg/day. The TD50 (females, inhaled, site: liver, lesion: angiosarcoma, dosed 71 weeks, study length 71 weeks) was 240 mg/kg/day, the TD50 (females, inhaled, site: liver, lesion: hepatocellular carcinoma, dosed 71 weeks, study length 71 weeks) was 1720 mg/kg/day and the TD50 (females, inhaled, site: liver, lesion: hepatoma, dosed 25 weeks, study length 135 weeks) was 357 mg/kg/day. It also gave a TD50 (females, inhaled, site: liver, lesion: hepatoma, dosed 52 weeks, study length 131 weeks) of 244 mg/kg/day, a TD50 (females, inhaled, site: liver, lesion: hepatoma, dosed 52 weeks, study length 139 weeks) of 140 mg/kg/day and a TD50 (females, inhaled, site: mammary gland, lesion: adenocarcinoma, dosed 25 weeks, study length 135 weeks) of 291 mg/kg/day. The TD50 (females, inhaled, site: mammary gland, lesion: adenocarcinoma, dosed 52 weeks, study length 111 weeks) was 5.91 mg/kg/day, the TD50 (females, inhaled, site: mammary gland, lesion: adenocarcinoma, dosed 52 weeks, study length 131 weeks) was 1.66 mg/kg/day and the TD50 (females, inhaled, site: mammary gland, lesion: adenocarcinoma, dosed 52 weeks, study length 139 weeks) was 141 mg/kg/day. For the same molecule, the TD50 (males, by gavage, site: Zymbal's gland, lesion: carcinoma, dosed 52 weeks, study length 127 weeks) was 315 mg/kg/day, the TD50 (males, by gavage, site: Zymbal's gland, lesion: carcinoma, dosed 59 weeks, study length 129 weeks) was 4.75 mg/kg/day and the TD50 (males, by gavage, site: any site (literature study), lesion: several types, types named in the paper, dosed 52 weeks, study length 127 weeks) was 37.9 mg/kg/day. The TD50 (males, by gavage, site: any site (literature study), lesion: several types, types named in the paper, dosed 59 weeks, study length 129 weeks) was 16.1 mg/kg/day, the TD50 (males, by gavage, site: extrahepatic tissue, lesion: angioma, dosed 52 weeks, study length 127 weeks) was 409 mg/kg/day and the TD50 (males, by gavage, site: kidney, lesion: nephroblastoma, dosed 52 weeks, study length 127 weeks) was 102 mg/kg/day. It also gave a TD50 (males, by gavage, site: liver, lesion: angioma, dosed 52 weeks, study length 127 weeks) of 430 mg/kg/day, a TD50 (males, by gavage, site: liver, lesion: angiosarcoma, dosed 52 weeks, study length 127 weeks) of 57.4 mg/kg/day and a TD50 (males, by gavage, site: liver, lesion: angiosarcoma, dosed 59 weeks, study length 129 weeks) of 8.45 mg/kg/day. It also gave a TD50 (males, by gavage, site: liver, lesion: hepatoma, dosed 59 weeks, study length 129 weeks) of 3.36 mg/kg/day, a TD50 (males, inhaled, site: Zymbal's gland, lesion: carcinoma, dosed 25 weeks, study length 115 weeks) of 284 mg/kg/day and a TD50 (males, inhaled, site: Zymbal's gland, lesion: carcinoma, dosed 25 weeks, study length 139 weeks) of 226 mg/kg/day. For the same molecule, the TD50 (males, inhaled, site: Zymbal's gland, lesion: carcinoma, dosed 52 weeks, study length 131 weeks) was 2320 mg/kg/day, the TD50 (males, inhaled, site: Zymbal's gland, lesion: carcinoma, dosed 52 weeks, study length 139 weeks) was 50.4 mg/kg/day and the TD50 (males, inhaled, site: adrenal gland, lesion: one or several types, types not named, dosed 52 weeks, study length 130 weeks) was 251 mg/kg/day. The TD50 (males, inhaled, site: any site (literature study), lesion: several types, types named in the paper, dosed 25 weeks, study length 115 weeks) was 134 mg/kg/day, the TD50 (males, inhaled, site: any site (literature study), lesion: several types, types named in the paper, dosed 25 weeks, study length 139 weeks) was 284 mg/kg/day and the TD50 (males, inhaled, site: any site (literature study), lesion: several types, types named in the paper, dosed 52 weeks, study length 130 weeks) was 17.3 mg/kg/day. For the same molecule, the TD50 (males, inhaled, site: any site (literature study), lesion: several types, types named in the paper, dosed 52 weeks, study length 131 weeks) was 950 mg/kg/day, the TD50 (males, inhaled, site: any site (literature study), lesion: several types, types named in the paper, dosed 52 weeks, study length 139 weeks) was 8.67 mg/kg/day and the TD50 (males, inhaled, site: brain, lesion: neuroblastoma, dosed 52 weeks, study length 131 weeks) was 4580 mg/kg/day. The TD50 (males, inhaled, site: extrahepatic tissue, lesion: angioma, dosed 25 weeks, study length 115 weeks) was 5810 mg/kg/day, the TD50 (males, inhaled, site: extrahepatic tissue, lesion: angioma, dosed 52 weeks, study length 123 weeks) was 31.4 mg/kg/day and the TD50 (males, inhaled, site: extrahepatic tissue, lesion: angioma, dosed 52 weeks, study length 131 weeks) was 8180 mg/kg/day. For the same molecule, the TD50 (males, inhaled, site: extrahepatic tissue, lesion: angioma, dosed 52 weeks, study length 139 weeks) was 18 mg/kg/day.
